Source: publication PMC10988555, “Exploiting Co(III)-Cyclopentadienyl Complexes To Develop Anticancer Agents” (Inorganic Chemistry, 2024)

Tests used:
[1] = tested on: HCT116 (human colorectal carcinoma) cell line; experiment: Antiproliferative activity, MTS assay, HCT116; assay type: cell-based; details: for IC50: 48 h exposure, MTS assay; for Selectivity index (SI), HCT116: IC50 fibroblasts/IC50 HCT116, values with * calculated taking fibroblast IC50 as 100 μM (minimal value)
Protocol: Human colorectal carcinoma cell line (HCT116), human breast cancer cell lines (MDA-MB-231 and MCF-7), and normal human primary dermal fibroblasts neonatal (PCS-201-010) cell line were grown in DMEM (Dulbecco’s modified Eagle’s medium) (Invitrogen Corp., Grand Island, NY, USA) supplemented with 10% (v/v) fetal bovine serum and 1% (v/v) antibiotic/antimycotic solution (Invitrogen Corp.). The human ovarian carcinoma (A2780) cell line was cultivated using RPMI (Roswell Park Memorial Institute) medium supplemented as in DMEM medium. The supplemented medium is named a complete medium. Cells were grown in an incubator with a humidified atmosphere at 5% (v/v) CO2 and 37 °C. All cell lines were purchased from ATCC (ATCC, American Type Culture Collection).
The evaluation of the cytotoxic potential of complexes 1–4 was obtained through in vitro measurements of the antiproliferative activity of these complexes. Cells were plated in 96-well plates at 7.5 × 10^4 cells/mL and incubated at 37 °C with 5% (v/v) CO2. After 24 h, the culture medium was replaced with fresh medium (100 μL) containing 0.1–50 μM of the different complexes and incubated for 48 h in tumor cell lines or containing 0.1–100 μM of the different complexes and incubated for 48 h in fibroblasts. […] The fibroblast cell line was used as a control of the cytotoxicity of the complexes for healthy cells. Cell viability was evaluated using Cell Titer 96 Aqueous Non-Radioactive Cell Proliferation Assay (Promega, Madison, WI, USA) using 3-(4,5-dimethylthiazol-2-yl)-5-(3-carboxymethoxyphenyl)-2-(4-sulfophenyl)-2H-tetrazolium inner salt (MTS), as described previously.[60] In metabolically active cells, enzymes present in the mitochondria catalyze a reaction in which NADPH/NADH is produced. These enzymes reduce the MTS reagent into a brownish product, Formazan, which can be quantified by measuring the absorbance at 490 nm. The quantity of formazan produced is directly proportional to the number of viable cells in the culture. This quantification was executed with a Biorad microplate reader Model 680 (Bio-Rad, Hercules, CA, USA). Half maximal inhibitory concentration (IC50) was calculated using GraphPad Prism 6 (GraphPadSoftware). We have calculated the ratio between the IC50 of fibroblasts and the IC50 of HCT116, A2780, MDA-MB-231, or MCF-7 cell lines for complexes 1–4 that was named herein as the Selectivity index (SI). To ensure the solubility of the complexes in all biological assays, complex solutions were freshly prepared and well solubilized before addition to the cells.

[2] = tested on: A2780 cell line; experiment: Internalization of cobalt by ICP-AES; assay type: cell-based, human; details: A2780, 10× IC50, ICP-AES, cellular fraction
Protocol: Internalization of the cobalt complexes was evaluated by ICP-AES in the A2780 cell line. For this, the A2780 cell line was seeded in 25 cm^2 T-flasks at a density of 5 × 10^5 cells/T-flask and incubated for 24 h at 37 °C with 5% (v/v) CO2. […] Cells were then incubated for 3, 6, and 12 h at the same conditions as before and for 12 h at 4 °C. The culture media was recovered to a new tube (supernatant fraction) and cells were detached from the T-flask with 2 mL of TripLE Express (TE) (Gibco by life technologies) and centrifuged at 750 × g for 5 min. Then, fresh aqua regia was added to the supernatant tube and to the cellular fractions and incubated overnight at room temperature (RT) in the hood fume. Samples were delivered to Laboratório de Análises/LAQV and the levels of cobalt were evaluated by ICP-AES.

[3] = tested on: A2780 cells; experiment: Cell fractioning and ICP-AES (cytosolic, mitochondrial, nuclear fractions); assay type: cell-based, human; details: A2780, 12 h, 10× IC50, 37 °C
Protocol: Internalization of the complexes in different cellular factions (cytosolic, mitochondrial, or nuclear) of A2780 cells was evaluated by using a cell fractionation kit (Abcam). Cells were seeded in a 24-well plate at a density of 2 × 10^5 cells/mL and incubated for 24 h at 37 °C with 5% (v/v) CO2. […] Cells were then incubated for 12 h at the same conditions as before. The culture media was recovered to a new tube (supernatant fraction) and cells were detached from the T-flask with 250 μL of TE (Gibco by life technologies). Then, we followed the instructions provided by the manufacturer of the cell fractionation kit (Abcam). At the end of the procedure, fresh aqua regia was added to the supernatant tube and to the cellular fractions and incubated overnight at room temperature (RT) in the hood fume. Samples were delivered to Laboratório de Análises/LAQV and the levels of cobalt were evaluated by ICP-AES.

[4] = tested on: A2780 cell line; experiment: Autophagy induction, flow cytometry; assay type: cell-based, human; details: for levels of autophagy: A2780, 48 h, complexes at IC50, DOX 0.4 μM, cisplatin 5 μM, rapamycin 500 nM for 15 h; for increase of autophagy compared to the control: A2780, IC50, 48 h, vs DMSO 0.1%
Protocol: The autophagy induced by complexes 2–4 was evaluated using the Autophagy Assay Kit (ab139484, Abcam, Cambridge, United Kingdom) according to the manufacturer’s instructions. For this, the A2780 cell line was seeded at a density of 2 × 10^5 cells/well in 6-well plates and incubated for 24 h at the conditions mentioned before. […] The positive control Rapamycin at 500 nM was incubated for only 15 h. After 48 h incubation, the cells were washed with PBS 1×, detached with TE, and treated with the Autophagy detection kit (Abcam, Cambridge, UK) according to the manufacturer’s instructions. The evaluation of autophagy induction was done through the Attune acoustic focusing flow cytometer (ThermoFisher Scientific) and respective software.

[5] = tested on: ROS in A2780 cell line; experiment: Production of reactive oxygen species (H2DCF-DA flow cytometry); assay type: cell-based, human; details: A2780, IC50, 48 h, vs DMSO
Protocol: The production of ROS was evaluated in the A2780 cell line, seeded in 6-well plates at a density of 2 × 10^5 cells/well, and incubated for 24 h at the same conditions as described above. […] Later, cells were washed with PBS 1×, detached from the wells with TE, and incubated with […] of 2′,7′-dichlorodihydrofluorescein diacetate (H2DCF-DA) (ThermoFisher Scientific, Waltham, MA, USA) in PBS 1× for 20 min at 37 °C. The data were obtained through an Attune acoustic focusing flow cytometer (ThermoFisher Scientific) and respective software.

| SMILES | IC50 [1] | Selectivity index (SI), HCT116 [1] | Percentage of internalization, 3 h at 37 °C [2] | Percentage of internalization, 6 h at 37 °C [2] | Percentage of internalization, 12 h at 37 °C [2] | Percentage of internalization in cytosol [3] | Percentage of internalization in mitochondria [3] | Percentage of internalization in nucleus [3] | levels of autophagy [4] | increase of autophagy compared to the control [4] | ROS production relative to control [5] |
| --- | --- | --- | --- | --- | --- | --- | --- | --- | --- | --- | --- |
| Nc1cc2cccnc2c2ncccc12.O=S(=O)([O-])C(F)(F)F.O=S(=O)([O-])C(F)(F)F.[Co+3].c1cc[cH-]c1.c1ccc(P(c2ccccc2)c2ccccc2)cc1 [Complex 4, [CoCp(PPh3)(NH2phen)][(CF3SO3)2]] | 14.1 ± 0.2 µM | 7.1* | 33.7% ± 2.7 | 43.6% ± 5.8 | 89.3% ± 10.6 | 66.4% ± 14.7 | 4.5% ± 2.1 | 18.4% ± 4.9 | 95.5% | 2.2 × | 1.9 × |
| O=S(=O)([O-])C(F)(F)F.O=S(=O)([O-])C(F)(F)F.[Co+3].c1cc[cH-]c1.c1ccc(P(c2ccccc2)c2ccccc2)cc1.c1cnc2c(c1)ccc1cccnc12 [Complex 3, [Co(η^5-C5H5)(PPh3)(phen)][(CF3SO3)2]] | 13.4 ± 0.1 µM | 7.5* | 49.7% ± 3.5 | 31.9% ± 10.2 | 76.9% ± 15.9 | 30.6% ± 2.7 | 26.0% ± 11.4 | 20.3% ± 5.8 |  | 1.5 × | 1.7 × |
| Cc1ccnc(-c2cc(C)ccn2)c1.O=S(=O)([O-])C(F)(F)F.O=S(=O)([O-])C(F)(F)F.[Co+3].c1cc[cH-]c1.c1ccc(P(c2ccccc2)c2ccccc2)cc1 [Complex 2, [Co(η^5-C5H5)(PPh3)(Me2bipy)][(CF3SO3)2]] | 15.3 ± 0.2 µM | 6.5* | 40.6% ± 2.0 | 50.7% ± 3.3 | 92.6% ± 6.5 | 36.9% ± 10.4 | 17.6% ± 6.5 | 38.1% ± 7.4 | 81.5% | 1.9 × | only a slight increase in the % of ROS |
